The record followed here is ChEMBL document CHEMBL1777675, “N-hydroxy-N'-aminoguanidines as anti-cancer lead molecule: QSAR, synthesis and biological evaluation” (Bioorg Med Chem Lett, 2011).

In general, IC50 refers to the concentration that inhibits the measured activity by half. By CC50 is commonly meant the concentration at which the toxic effect on the cells reaches its halfway point.

Data set [1] has as its system HL-60. The data set can be described thus: Anticancer activity against human HL60 cells. Format: functional, cell-based.
A short description of data set [2]: Cytotoxicity against african green monkey Vero cells. The format is cell-based. The note with it: chlorocebus sabaeus.
Data set [3] in a line: Cytotoxicity against human HeLa cells. Format: cell-based.
The test system of data set [4] is L1210. The data set can be described thus: Cytotoxicity against mouse L1210 cells after 65 hrs by MTS/PES microculture tetrazolium assay. The format is functional, cell-based. As to conditions: L1210, 65 h.

Take `N=C(NO)N/N=C/c1ccc(Cl)cc1`: in data set [1], the IC50 was above 100 µM. Also, the half-maximal cytotoxic concentration (CC50) in data set [2] and in data set [3] was above 100 µM in each case. `CN(C)c1ccc(/C=N/NC(=N)NO)cc1` had an IC50 in data set [1] above 100 µM. The CC50 in data set [2] and in data set [3] was above 100 µM throughout. Consider `N=C(NO)N/N=C/c1ccc(O)cc1`, for which the half-inhibitory concentration (IC50) in data set [1] was above 100 µM. Also, the cytotoxic concentration (CC50) in data set [2] and in data set [3] was above 100 µM in each case.

`COc1ccc(/C=N/NC(=N)NO)cc1`: the IC50 in data set [1] was above 100 µM. The half-maximal cytotoxic concentration (CC50) in data set [2] and in data set [3] was above 100 µM in each case. With `COc1ccc(/C=N/NC(=N)NO)cc1O`, the concentration for half-maximal inhibition (IC50) in data set [1] is above 100 µM. In addition, the CC50 in data set [2] and in data set [3] was above 100 µM each time. The compound `N/C(=N\O)N/N=C/c1ccccc1O` came in with an IC50 in data set [1] of 95 µM. For the same compound, the CC50 in data set [2] and in data set [3] was above 100 µM in each case. Take `N=C(NO)N/N=C/c1ccccc1Cl`: in data set [1], the IC50 was determined as 60 µM. Also, the CC50 in data set [2] and in data set [3] was above 100 µM each time. Regarding `COc1ccccc1/C=N/N=C(\N)NO`, the IC50 in data set [1] was above 100 µM. The CC50 in data set [2] and in data set [3] was above 100 µM throughout.

`CS(=O)(=O)Oc1ccc(/C=N/NC(=N)NO)cc1` had an IC50 in data set [4] of 14.8 µM. Same read-out and setting: in the case of `CCCCCCOc1ccc(/C=N/NC(=N)NO)cc1` it was 7.8 µM; in that of `CCCCOc1ccc(/C=N/NC(=N)NO)cc1`, 8.53 µM.

`Cc1ccn(C)c1/C=N/NC(=N)NO` gave a concentration for half-maximal inhibition (IC50) in data set [4] of 2.7 µM. On the same count and under the same terms, the value for `O=C(NO)N/N=C\C1=CCc2c(Cl)cc(Cl)cc2C1=O` was 28.2 µM; that for `CC(C)c1ccc2c(c1)C(=O)C(/C=N\NC(=O)NO)=CC2` was 32.2 µM. Still for that read-out and setting: in the case of `O=C(NO)N/N=C/C1CC2C=CC1C2` (configuration not stated) it was 10.6 µM. On the same count and under the same terms, in the case of `N=C(NO)N/N=C/c1cc2ccccc2cn1` it was 3.3 µM; in that of `N=C(NO)N/N=C1\C(=O)Nc2ccccc21`, 48.4 µM.

`O=C(NO)N/N=C/C1CCCCC1` showed a 50% inhibitory concentration (IC50) in data set [4] of 21.2 µM. In data set [1], `N=C(NO)N/N=C/c1ccco1` returned an IC50 above 100 µM. For the same compound, the CC50 in data set [2] and in data set [3] was above 100 µM each time.

Turning to `Cc1ccccc1/C=N/NC(=N)NO`, the IC50 in data set [1] is above 100 µM. The cytotoxic concentration (CC50) in data set [2] and in data set [3] was above 100 µM throughout. In the case of `Cc1ccc(/C=N/NC(=N)NO)cc1`, in data set [1], the concentration for half-maximal inhibition (IC50) worked out at 67 µM. Moreover, the cytotoxic concentration (CC50) in data set [2] and in data set [3] was above 100 µM each time. `N=C(NO)N/N=C/c1ccccc1`: in data set [1], the half-maximal inhibitory concentration (IC50) was 62 µM. Moreover, the cytotoxic concentration (CC50) in data set [2] and in data set [3] was above 100 µM throughout. In turn, `N=C(NO)N/N=C/c1c2ccccc2cc2ccccc12` yielded a concentration for half-maximal inhibition (IC50) in data set [1] of 11 µM. The 50% cytotoxic concentration (CC50) in data set [2] and in data set [3] was above 100 µM throughout. In the case of `Cc1ccsc1/C=N/N=C(/N)NO`, the IC50 in data set [4] was 33.2 µM. Still for that read-out and setting: in the case of `N/C(=N/N=C/c1ccccn1)NO` it was 10.9 µM; in that of `COc1cccc(/C=N/NC(=N)NO)c1`, 16 µM; in that of `Cc1cccc(/C=N/N=C(\N)NO)n1`, 42.1 µM. On the same count and under the same terms, the value for `N/C(=N\O)N/N=C/c1cccc(C(F)(F)F)c1` was 15.1 µM; that for `N/C(=N\O)N/N=C/c1cccs1` was 34.1 µM. The compound `N/C(=N\O)N/N=C/c1cccc(I)c1` gave an IC50 in data set [4] of 12.5 µM. `N=C(NN)NO` had an IC50 in data set [4] of 126 µM.
